We go through four compounds from PubChem BioAssay AID2060362 (Molecular Pharmacology Branch, DTP, NCI, 2025).

The subject of the test is 128128-338-R-J1-PDC spheroids, viability % test/control. As to the kind of experiment: Anticancer human tumor 128128-338-R-J1-PDC patient-derived melanoma cell line growth inhibition [TAK]. Particulars: spheroids with HUVEC and MSC; for viability, T/C: stronger effect = lower value. In short, it runs like this:
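Tumor cells were grown as spheroids with HUVEC and hMSC (60:25:15) and treated with targeted agents combined with TAK-243 or ipatasertib. Drugs were tested in half-log steps down from near the clinical Cmax, or from 10 microM where Cmax was unknown.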

The structures appear in SMILES notation. Several values for one entry are separate records, joined by “and”; a condition that tells them apart may be missing. Equal entries are not always repeated. Activity calls are given as the source filed them. Rule for the calls: active = viability on the fitted dose curve at most 10% of control; inactive = the rest.
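Note: spheroids exposed to compounds for 7 days.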
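Throughout, for viability, T/C: 100% = DMSO vehicle wells.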

Regarding `COC1CC2CCC(C)C(O)(O2)C(=O)C(=O)N2CCCCC2C(=O)OC(C(C)CC2CCC(OCCO)C(OC)C2)CC(=O)C(C)C=C(C)C(O)C(OC)C(=O)C(C)CC(C)C=CC=CC=C1C` (stereo unspecified), the viability, T/C (compound 0.000316 µM) was 108% and 104%; the viability, T/C (compound 0.001 µM) is 102%; the viability, T/C (compound 0.00316 µM) was 96.4% and 93.1%; the viability, T/C (compound 0.01 µM) was 79.5% and 86.7%; the viability, T/C (compound 0.0316 µM) was 64.5% and 67.5%; the viability, T/C (compound 0.1 µM) was 51.6% and 53.8%. The IC50 (curve of compound) was > 100 nM.

As to `COC1CC2CCC(C)C(O)(O2)C(=O)C(=O)N2CCCCC2C(=O)OC(C(C)CC2CCC(OCCO)C(OC)C2)CC(=O)C(C)C=C(C)C(O)C(OC)C(=O)C(C)CC(C)C=CC=CC=C1C` (stereo unspecified) + CC(C)NCC(C(=O)N1CCN(c2ncnc3c2C(C)CC3O)CC1)c1ccc(Cl)cc1, the IC50 by setting is: (curve of first compound, second compound 0.3 µM) > 100 nM; (curve of first compound, second compound 0.949 µM) 18.5 nM; (curve of first compound, second compound 3 µM) 7.41 nM; (curve of first compound, second compound 9.49 µM) 0.462 nM; (curve of first compound, second compound 30 µM) < 0.316 nM. Moreover, the viability, T/C runs as follows: (second compound 0.3 µM, first compound 0.000316 µM) 110%; (second compound 0.3 µM, first compound 0.001 µM) 99.9%; (second compound 0.3 µM, first compound 0.00316 µM) 87.6%; (second compound 0.3 µM, first compound 0.01 µM) 69.1%; (second compound 0.3 µM, first compound 0.0316 µM) 56.6%; (second compound 0.3 µM, first compound 0.1 µM) 54.4%. The viability, T/C is 110% (second compound 0.949 µM, first compound 0.000316 µM); 97.4% (second compound 0.949 µM, first compound 0.001 µM); 68.8% (second compound 0.949 µM, first compound 0.00316 µM); 56.4% (second compound 0.949 µM, first compound 0.01 µM); 48.8% (second compound 0.949 µM, first compound 0.0316 µM); 35.6% (second compound 0.949 µM, first compound 0.1 µM). Further, the viability, T/C is, setting by setting: (second compound 3 µM, first compound 0.000316 µM) 88%; (second compound 3 µM, first compound 0.001 µM) 77.4%; (second compound 3 µM, first compound 0.00316 µM) 62.5%; (second compound 9.49 µM, first compound 0.000316 µM) 56.3%; (second compound 9.49 µM, first compound 0.001 µM) 37.2%; (second compound 9.49 µM, first compound 0.00316 µM) 20.4%. Besides, the viability, T/C (second compound 9.49 µM, first compound 0.01 µM) was 11.9%; the viability, T/C (second compound 9.49 µM, first compound 0.0316 µM) was 9.65%; the viability, T/C (second compound 9.49 µM, first compound 0.1 µM) was 9.71%; the viability, T/C (second compound 30 µM, first compound 0.000316 µM) was 9.06%; the viability, T/C (second compound 30 µM, first compound 0.001 µM) was 7.48%; the viability, T/C (second compound 30 µM, first compound 0.00316 µM) is 3.65%. Moreover, the viability, T/C (second compound 30 µM, first compound 0.01 µM) was 2.31%; the viability, T/C (second compound 30 µM, first compound 0.0316 µM) was 2.3%; the viability, T/C (second compound 30 µM, first compound 0.1 µM) was 2.06%. In addition, the outcome is, setting by setting: (second compound 3 µM, first compound 0.01 µM) “inactive”; (second compound 3 µM, first compound 0.0316 µM) “inactive”; (second compound 3 µM, first compound 0.1 µM) “inactive”.

Consider `Cn1cnc2c(F)c(Nc3ccc(Br)cc3Cl)c(C(=O)NOCCO)cc21`, for which the viability, T/C is 95.7% and 94.9% (compound 0.00949 µM); 75.4% and 82.6% (compound 0.03 µM); 44.2% and 50.7% (compound 0.0949 µM); 9.03% and 14.9% (compound 0.3 µM); 3.38% and 4.34% (compound 0.949 µM); 3.13% and 2.58% (compound 3 µM). Moreover, the IC50 (curve of compound) was 72.1 nM and 94.6 nM.

In the case of `CC(C)n1nc(-c2ccc3oc(N)nc3c2)c2c(N)ncnc21`, the viability, T/C by setting is: (compound 0.000316 µM) 99.1% and 106%; (compound 0.001 µM) 94.7% and 96.1%; (compound 0.00316 µM) 83.2% and 80.7%; (compound 0.01 µM) 67.3% and 64.7%; (compound 0.0316 µM) 31.2% and 30.5%; (compound 0.1 µM) 6.18% and 6.1%. Further, the IC50 (curve of compound) was 16.9 nM and 15.7 nM.

Broadly, the viability, T/C is the ratio of treated to control. A word on the IC50: it is the point on the concentration scale where inhibition reaches its midpoint.
